# Measurements published in ChEMBL document CHEMBL5465560, “Selectivity Literature for EUbOPEN Chemogenomic Library” (2024).
# Columns and labels:
# [1] = molecular target: hERG (KCNH2) (Homo sapiens, UniProt Q12809); assay: Selectivity interaction (Safety Panel 44tm (Eurofins)) EUB0000162b KCNH2; conditions: at 10 µM, read-out: % of control
# [2] = molecular target: Serine/threonine-protein kinase WNK3 (Homo sapiens) (UniProt Q9BYP7); assay: Selectivity interaction (KinomeScan (DiscoverX)) EUB0000666a WNK3; conditions: at 10 µM
# [3] = tested on: Epidermal growth factor receptor (Homo sapiens), P00533 [UNDEFINED MUTATION]; assay: Selectivity interaction (KinomeScan (DiscoverX)) EUB0000666a EGFR; conditions: at 10 µM
# [4] = molecular target: Insulin receptor (Homo sapiens, UniProt P06213); assay: Selectivity interaction (KinomeScan (DiscoverX)) EUB0000666a INSR; conditions: at 10 µM
# [5] = molecular target: SRSF protein kinase 3 (Homo sapiens) (UniProt Q9UPE1); assay: Selectivity interaction (KinomeScan (DiscoverX)) EUB0000666a SRPK3; conditions: at 10 µM
# Sequence of SRSF protein kinase 3 (Homo sapiens) (Q9UPE1 whole entry): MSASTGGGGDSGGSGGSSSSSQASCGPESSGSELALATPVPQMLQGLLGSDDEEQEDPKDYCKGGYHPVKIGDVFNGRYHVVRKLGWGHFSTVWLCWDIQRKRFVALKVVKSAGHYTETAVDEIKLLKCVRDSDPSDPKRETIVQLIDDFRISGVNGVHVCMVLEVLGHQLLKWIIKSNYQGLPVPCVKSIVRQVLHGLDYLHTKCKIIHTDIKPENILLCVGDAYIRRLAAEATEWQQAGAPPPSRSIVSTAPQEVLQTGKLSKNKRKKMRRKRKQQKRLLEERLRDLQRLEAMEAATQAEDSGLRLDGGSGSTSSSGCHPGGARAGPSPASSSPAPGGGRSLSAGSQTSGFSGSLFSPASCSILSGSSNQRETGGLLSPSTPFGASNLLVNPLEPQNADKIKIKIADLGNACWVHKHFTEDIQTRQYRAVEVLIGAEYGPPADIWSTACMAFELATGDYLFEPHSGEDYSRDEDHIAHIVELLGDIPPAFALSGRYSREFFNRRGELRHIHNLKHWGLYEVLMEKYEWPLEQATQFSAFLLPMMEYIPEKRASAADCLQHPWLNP
# [6] = molecular target: Tyrosine-protein kinase Lck (Homo sapiens, UniProt P06239); assay: Selectivity interaction (Radiometric kinase assay (using 10 uM ATP)) EUB0000601a LCK
# Sequence of Tyrosine-protein kinase Lck (P06239 whole entry): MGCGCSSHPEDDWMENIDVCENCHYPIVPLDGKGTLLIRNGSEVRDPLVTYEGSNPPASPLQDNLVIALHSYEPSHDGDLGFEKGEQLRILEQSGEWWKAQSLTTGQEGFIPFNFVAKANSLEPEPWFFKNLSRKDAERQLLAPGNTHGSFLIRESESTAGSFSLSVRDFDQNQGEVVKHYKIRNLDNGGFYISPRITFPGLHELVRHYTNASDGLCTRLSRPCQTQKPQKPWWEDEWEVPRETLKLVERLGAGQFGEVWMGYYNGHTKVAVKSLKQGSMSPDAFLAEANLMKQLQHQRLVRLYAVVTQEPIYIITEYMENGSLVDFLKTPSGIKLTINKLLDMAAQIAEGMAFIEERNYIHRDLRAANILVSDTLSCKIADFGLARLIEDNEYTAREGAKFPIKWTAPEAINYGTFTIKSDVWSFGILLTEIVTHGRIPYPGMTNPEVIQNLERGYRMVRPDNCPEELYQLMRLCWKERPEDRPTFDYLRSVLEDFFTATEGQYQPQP
# [7] = molecular target: Myosin light chain kinase 2, skeletal/cardiac muscle (Homo sapiens) (UniProt Q9H1R3); assay: Selectivity interaction (KinomeScan (DiscoverX)) EUB0000229b MYLK2; conditions: at 10 µM
# [8] = molecular target: Muscarinic acetylcholine receptor M2 (Homo sapiens, UniProt P08172); assay: Selectivity interaction (Muscarinic M2 Calcium flux assay, agonist and antagonist mode ) EUB0000877a CHRM2
# Sequence of Muscarinic acetylcholine receptor M2 (P08172 whole entry): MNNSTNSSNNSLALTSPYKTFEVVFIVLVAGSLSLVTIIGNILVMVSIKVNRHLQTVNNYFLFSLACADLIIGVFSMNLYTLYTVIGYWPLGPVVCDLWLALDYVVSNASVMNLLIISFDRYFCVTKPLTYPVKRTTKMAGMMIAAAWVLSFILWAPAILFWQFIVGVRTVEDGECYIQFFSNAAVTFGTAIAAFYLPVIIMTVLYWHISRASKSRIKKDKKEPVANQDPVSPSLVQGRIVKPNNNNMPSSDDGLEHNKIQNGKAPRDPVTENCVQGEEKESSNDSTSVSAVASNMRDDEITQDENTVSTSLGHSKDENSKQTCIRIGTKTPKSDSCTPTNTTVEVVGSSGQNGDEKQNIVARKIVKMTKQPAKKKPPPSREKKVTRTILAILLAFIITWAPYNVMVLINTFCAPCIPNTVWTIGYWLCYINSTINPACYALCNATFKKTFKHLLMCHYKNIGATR
# [9] = molecular target: T1, Serine/threonine-protein kinase 4 (Homo sapiens) (UniProt Q13043); assay: Selectivity interaction (Kinase panel (DSF assay)) EUB0001559a STK4
# T1 sequence (whole entry): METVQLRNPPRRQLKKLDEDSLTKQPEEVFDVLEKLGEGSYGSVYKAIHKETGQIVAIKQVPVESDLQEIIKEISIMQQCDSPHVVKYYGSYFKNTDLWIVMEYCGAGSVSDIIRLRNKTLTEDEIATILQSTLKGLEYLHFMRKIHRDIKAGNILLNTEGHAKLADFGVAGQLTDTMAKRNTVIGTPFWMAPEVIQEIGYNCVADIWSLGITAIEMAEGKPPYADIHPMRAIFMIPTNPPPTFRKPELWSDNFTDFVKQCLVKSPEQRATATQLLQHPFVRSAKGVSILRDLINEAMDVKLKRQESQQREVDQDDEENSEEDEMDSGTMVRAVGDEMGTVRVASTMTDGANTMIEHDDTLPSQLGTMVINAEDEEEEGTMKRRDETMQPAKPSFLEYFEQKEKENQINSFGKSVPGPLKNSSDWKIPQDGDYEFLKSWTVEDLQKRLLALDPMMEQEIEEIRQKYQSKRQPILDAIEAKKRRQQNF
# [10] = molecular target: Mitogen-activated protein kinase 9 (Homo sapiens, UniProt P45984); assay: Selectivity interaction (ActivX KiNativ screen (kinase selectivity in THP-1 cell lysates)) EUB0000639a MAPK9; type: subcellular; conditions: lysate, at 0.2 µM
# [11] = molecular target: T2, Inhibitor of nuclear factor kappa-B kinase subunit alpha (Homo sapiens) (UniProt O15111); assay: Selectivity interaction (Kinase panel (Invitrogen)) EUB0000639a CHUK; conditions: at 200 nM
# T2 sequence (whole entry): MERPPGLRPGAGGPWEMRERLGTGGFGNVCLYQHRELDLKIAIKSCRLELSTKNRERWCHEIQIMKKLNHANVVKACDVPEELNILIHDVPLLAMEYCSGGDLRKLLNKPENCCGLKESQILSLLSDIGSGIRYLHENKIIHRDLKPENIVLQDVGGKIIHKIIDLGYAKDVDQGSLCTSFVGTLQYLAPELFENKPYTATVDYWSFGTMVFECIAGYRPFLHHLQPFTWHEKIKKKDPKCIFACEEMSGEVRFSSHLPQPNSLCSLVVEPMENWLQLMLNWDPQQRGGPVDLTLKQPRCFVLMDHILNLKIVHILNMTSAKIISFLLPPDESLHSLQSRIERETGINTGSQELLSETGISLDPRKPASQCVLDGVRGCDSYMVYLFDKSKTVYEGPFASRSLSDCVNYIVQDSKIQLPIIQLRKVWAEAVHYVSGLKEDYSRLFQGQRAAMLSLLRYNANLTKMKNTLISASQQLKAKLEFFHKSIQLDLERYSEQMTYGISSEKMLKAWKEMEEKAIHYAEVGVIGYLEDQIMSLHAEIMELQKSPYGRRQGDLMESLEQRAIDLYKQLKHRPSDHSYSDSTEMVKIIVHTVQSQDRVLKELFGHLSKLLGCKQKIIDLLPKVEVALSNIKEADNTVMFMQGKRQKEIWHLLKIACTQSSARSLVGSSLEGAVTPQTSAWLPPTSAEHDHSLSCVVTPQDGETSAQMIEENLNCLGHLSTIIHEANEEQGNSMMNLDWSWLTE
# [12] = molecular target: Cyclin-dependent kinase 9 (Homo sapiens, UniProt P50750); assay: Selectivity interaction (ActivX KiNativ screen (kinase selectivity in THP-1 cell lysates)) EUB0000639a CDK9; type: subcellular; conditions: lysate
# Sequence of Cyclin-dependent kinase 9 (P50750 whole entry): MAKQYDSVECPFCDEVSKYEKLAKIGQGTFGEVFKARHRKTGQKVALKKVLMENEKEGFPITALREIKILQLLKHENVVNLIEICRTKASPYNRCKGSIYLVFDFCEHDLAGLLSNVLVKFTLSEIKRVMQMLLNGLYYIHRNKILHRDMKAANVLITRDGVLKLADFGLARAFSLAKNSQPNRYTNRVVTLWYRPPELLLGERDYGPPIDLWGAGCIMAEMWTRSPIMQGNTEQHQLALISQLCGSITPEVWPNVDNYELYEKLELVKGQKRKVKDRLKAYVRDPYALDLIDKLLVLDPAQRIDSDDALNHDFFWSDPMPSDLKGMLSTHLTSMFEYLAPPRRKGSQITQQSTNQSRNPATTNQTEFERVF
# [13] = molecular target: Vascular endothelial growth factor receptor 1 (Homo sapiens) (UniProt P17948); assay: Selectivity interaction (Kinase panel (Invitrogen)) EUB0000639a FLT1; conditions: at 200 nM
# [14] = molecular target: Angiopoietin-1 receptor (Homo sapiens) (UniProt Q02763); assay: Selectivity interaction (KinomeScan (DiscoverX)) EUB0000092b TEK; conditions: at 10 µM
# [15] = molecular target: Calcium/calmodulin-dependent protein kinase type II subunit beta (Homo sapiens) (UniProt Q13554); assay: Selectivity interaction (Ambit KINOMEscan and KiNATiv profiling in Jurkat cells) EUB0000090b CAMK2B; type: cell-based; conditions: at 1 µM
# [16] = molecular target: Macrophage-stimulating protein receptor (Homo sapiens, UniProt Q04912); assay: Selectivity interaction (KinomeScan (DiscoverX)) EUB0000045b MST1R
# Sequence of Macrophage-stimulating protein receptor (Q04912 25-304 limits assumed): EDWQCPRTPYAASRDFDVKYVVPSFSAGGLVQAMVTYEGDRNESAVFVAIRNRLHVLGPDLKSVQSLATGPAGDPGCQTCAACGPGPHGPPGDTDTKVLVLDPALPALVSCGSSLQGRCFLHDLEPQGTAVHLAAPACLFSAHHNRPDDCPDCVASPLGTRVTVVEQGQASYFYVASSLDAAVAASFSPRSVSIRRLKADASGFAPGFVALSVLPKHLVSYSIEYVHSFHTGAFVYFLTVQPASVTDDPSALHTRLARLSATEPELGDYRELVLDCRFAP
# Sequence of Macrophage-stimulating protein receptor (Q04912 310-1400 limits assumed): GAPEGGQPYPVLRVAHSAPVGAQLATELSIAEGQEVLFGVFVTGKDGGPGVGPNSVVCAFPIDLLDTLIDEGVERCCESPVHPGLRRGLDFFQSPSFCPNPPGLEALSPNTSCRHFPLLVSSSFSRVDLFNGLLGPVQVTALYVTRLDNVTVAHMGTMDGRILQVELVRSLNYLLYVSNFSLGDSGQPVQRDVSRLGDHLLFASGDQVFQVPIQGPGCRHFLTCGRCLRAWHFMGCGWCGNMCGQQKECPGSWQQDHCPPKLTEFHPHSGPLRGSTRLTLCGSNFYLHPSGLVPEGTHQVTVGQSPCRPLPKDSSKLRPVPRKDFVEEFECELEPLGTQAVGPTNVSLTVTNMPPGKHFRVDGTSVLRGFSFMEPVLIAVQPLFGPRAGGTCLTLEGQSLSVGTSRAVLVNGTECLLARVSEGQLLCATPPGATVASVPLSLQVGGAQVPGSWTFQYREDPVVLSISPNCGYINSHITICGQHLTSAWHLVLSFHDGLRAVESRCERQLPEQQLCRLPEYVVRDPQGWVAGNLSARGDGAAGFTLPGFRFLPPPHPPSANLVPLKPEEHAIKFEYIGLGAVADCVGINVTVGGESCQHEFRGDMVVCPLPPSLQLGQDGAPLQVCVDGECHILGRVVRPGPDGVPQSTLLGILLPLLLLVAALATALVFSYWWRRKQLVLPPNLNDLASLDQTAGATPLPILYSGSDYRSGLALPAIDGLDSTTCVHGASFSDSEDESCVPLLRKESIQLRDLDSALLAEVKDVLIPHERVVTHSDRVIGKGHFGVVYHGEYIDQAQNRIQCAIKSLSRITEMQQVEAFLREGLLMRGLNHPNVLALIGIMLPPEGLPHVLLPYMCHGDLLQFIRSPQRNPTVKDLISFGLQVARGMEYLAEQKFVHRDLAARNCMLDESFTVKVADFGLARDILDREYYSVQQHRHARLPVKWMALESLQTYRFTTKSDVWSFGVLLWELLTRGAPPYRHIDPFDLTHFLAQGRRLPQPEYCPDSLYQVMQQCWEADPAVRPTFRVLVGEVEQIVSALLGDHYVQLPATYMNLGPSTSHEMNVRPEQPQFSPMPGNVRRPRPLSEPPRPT
# [17] = molecular target: Myosin-IIIa (Homo sapiens) (UniProt Q8NEV4); conditions: at 10 µM
# Sequence of Myosin-IIIa (Homo sapiens) (Q8NEV4 whole entry): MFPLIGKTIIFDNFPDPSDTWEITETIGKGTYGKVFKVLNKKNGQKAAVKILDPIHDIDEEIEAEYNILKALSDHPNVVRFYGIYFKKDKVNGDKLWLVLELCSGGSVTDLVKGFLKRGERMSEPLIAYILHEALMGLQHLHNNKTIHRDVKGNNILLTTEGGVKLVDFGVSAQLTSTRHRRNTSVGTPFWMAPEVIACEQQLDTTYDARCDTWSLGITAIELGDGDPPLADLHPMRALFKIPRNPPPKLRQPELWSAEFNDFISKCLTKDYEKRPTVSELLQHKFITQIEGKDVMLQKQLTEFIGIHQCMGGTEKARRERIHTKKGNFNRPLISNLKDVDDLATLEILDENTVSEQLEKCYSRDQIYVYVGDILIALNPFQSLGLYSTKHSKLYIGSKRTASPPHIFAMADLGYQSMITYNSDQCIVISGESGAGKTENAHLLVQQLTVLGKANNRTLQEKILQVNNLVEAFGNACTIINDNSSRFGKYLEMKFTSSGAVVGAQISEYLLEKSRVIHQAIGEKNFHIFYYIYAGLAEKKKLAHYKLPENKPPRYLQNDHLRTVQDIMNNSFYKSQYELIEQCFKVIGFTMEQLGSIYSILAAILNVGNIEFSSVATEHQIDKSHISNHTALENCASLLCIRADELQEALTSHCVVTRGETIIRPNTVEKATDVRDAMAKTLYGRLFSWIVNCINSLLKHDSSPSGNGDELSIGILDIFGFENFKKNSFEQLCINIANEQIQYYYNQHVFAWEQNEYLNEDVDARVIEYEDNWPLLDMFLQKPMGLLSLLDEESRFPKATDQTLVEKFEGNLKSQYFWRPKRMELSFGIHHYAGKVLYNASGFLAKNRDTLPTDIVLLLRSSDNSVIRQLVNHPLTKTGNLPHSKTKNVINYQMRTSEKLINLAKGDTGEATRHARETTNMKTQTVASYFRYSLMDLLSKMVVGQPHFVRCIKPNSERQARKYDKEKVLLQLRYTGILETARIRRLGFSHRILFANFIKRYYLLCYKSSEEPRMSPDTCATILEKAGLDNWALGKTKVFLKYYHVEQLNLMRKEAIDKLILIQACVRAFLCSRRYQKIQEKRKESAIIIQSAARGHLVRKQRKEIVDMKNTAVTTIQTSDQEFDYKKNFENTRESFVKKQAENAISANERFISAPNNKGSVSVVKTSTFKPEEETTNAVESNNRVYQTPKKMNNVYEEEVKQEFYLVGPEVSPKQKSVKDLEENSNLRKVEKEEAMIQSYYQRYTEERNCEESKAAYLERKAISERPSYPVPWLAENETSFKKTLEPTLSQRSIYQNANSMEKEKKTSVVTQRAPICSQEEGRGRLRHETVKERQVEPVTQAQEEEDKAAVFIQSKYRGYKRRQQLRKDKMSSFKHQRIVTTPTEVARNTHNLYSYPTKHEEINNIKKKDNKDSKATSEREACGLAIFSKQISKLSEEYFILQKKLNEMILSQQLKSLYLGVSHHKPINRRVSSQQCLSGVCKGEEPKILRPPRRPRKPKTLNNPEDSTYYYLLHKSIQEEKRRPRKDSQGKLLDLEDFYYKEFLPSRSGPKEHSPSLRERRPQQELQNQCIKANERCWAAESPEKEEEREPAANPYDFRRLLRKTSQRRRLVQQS
# [18] = molecular target: Protein-tyrosine kinase 2-beta (Homo sapiens) (UniProt Q14289); assay: Selectivity interaction (KinomeScan (DiscoverX)) EUB0001619a PTK2B; conditions: at 1 µM
smiles,measurement,setting,value
CN(C)C(=O)Cn1cc(-c2ccc(-c3cncc4ccccc34)cc2)cn1,activity,[1],85%
O=C(NOC[C@H](O)CO)c1ccc(F)c(F)c1Nc1ccc(I)cc1F,% of control,[2],100%
same,% of control,[3],59%
same,% of control,[4],92%
same,% of control,[5],100%
CCc1cc(Nc2nccc(-c3c(-c4ccc(OC)c(C(=O)Nc5c(F)cccc5F)c4)nc4ccccn34)n2)c(OC)cc1N1CCC(N2CCN(S(C)(=O)=O)CC2)CC1,IC50,[6],> 3 µM
COc1cc(N(C)c2ccnc3ccc(C(F)(F)F)cc23)cc(OC)c1OC,% binding,[7],75%
CCC(=O)N1CC[C@H](Nc2ncnc3c2CN(c2cnc(OC)c(C(F)(F)F)c2)CC3)C1 [LENIOLISIB],IC50,[8],> 30 µM
CN(C(=O)c1cnn2cccnc12)c1cc2c(cc1N1CCOCC1)C(=O)N(C[C@@H](F)C(C)(C)O)C2,dTM,[9],-0.1 K
CC[C@@H]1[C@H](F)C(=O)N[C@@H]1COc1nccc2cc(C(N)=O)c(OC)cc12 [ZIMLOVISERTIB],% of inhibition,[10],-0.3%
same,% of inhibition,[11],-5.38%
same,% of inhibition,[12]; at 0.01 µM,16.2%
same,% of inhibition,[12]; at 0.04 µM,0.9%
same,% of inhibition,[12]; at 0.2 µM,2.5%
same,% of inhibition,[12]; at 1 µM,-1%
same,% of inhibition,[12]; at 5 µM,33%
same,% of inhibition,[13],3.08%
CCC(=O)N1CCN(c2ccc(-n3c(=O)ccc4cnc5ccc(-c6cnc7ccccc7c6)cc5c43)cc2C(F)(F)F)CC1,% of control,[14],19%
CN(C)C/C=C/C(=O)Nc1ccc(C(=O)N2CCCC(Nc3ncc(Cl)c(-c4c[nH]c5ccccc45)n3)C2)cc1 (stereo not drawn),% of control,[15],94%
C=CC(=O)Nc1cc(-n2c(=O)ccc3cnc4ccc(-c5ccc(NS(C)(=O)=O)cc5)cc4c32)ccc1C,% of control,[16]; at 1 µM,100%
same,% of control,[16]; at 10 µM,100%
Cc1cc([C@@H](C)Nc2ccccc2C(=O)O)c2nc(N3CCOCC3)cc(=O)n2c1 [AZD-6482],% of control,[17],97%
N#Cc1cccc(-c2c[nH]c3ncnc(N4CCOCC4)c23)c1,% of control,[18],100%
